# What was measured:
# [1] = test system: multi-strain LAB culture; assay: SSF of control mash with 1% w/w infected mash, AA13 candidates, HPLC of organic acids and ethanol (Example 3); assay type: cell-based; conditions: SSF 32° C. up to 24 hours, 20% DS; for % delta Ethanol / % delta Lactic Acid: vs No Treatment
# Procedure: A control mash was prepared in-house with an industry relevant blend of AA369 and Protease Pfu using a Lab-O-Mat incubator for 2 hours at 85° C. and 36% DS to simulate typical industry conditions. The mash was then frozen prior to use in SSF. An infected mash was prepared by infecting the control mash with a multi-strain LAB culture grown in MRS. The bacteria in control mash was incubated overnight, and then frozen with 20% glycerol. For this experiment, 1% weight/weight of the infected mash was mixed into the control mash. This mimics an infection event at a large-scale ethanol facility. For SSF, all mash was prepared with 1000 ppm of urea to aid with yeast fermentation. All treatments were dosed with a baseline commercial glucoamylase GSA, while AA13 candidates were dosed at either 10 ug/g-DS or 50 ug/g-DS. SSF was performed at 5 g scale with 10 uL/g rehydrated Ethanol Red yeast at 32° C. for up to 24 hours at 20% DS. At the end of fermentation, samples were deactivated with 50 uL of 40% sulfuric acid and then centrifuged. The supernatant was filtered through a 0.2 μm filter and then measured for soluble carbohydrates and organic acids using an ion-exchange H-column on HPLC.
# [2] = test system: mixed bacterial population previously isolated from an infected commercial corn mash; assay: Low Dry Solids fermentation of 1% infected liquefied corn mash with AA13 polypeptides, HPLC analysis (Example 2); assay type: cell-based; conditions: after 20 hrs of Low Dry Solids fermentation of corn mash; increasing doses; vs control
# Procedure: Clean liquefied corn mash: Clean corn mash was prepared in our laboratories under typical liquefaction conditions using a blend of AA369 and Protease Pfu. […] Substrate is stored frozen and thawed before use.
# Infected liquefied corn mash: Clean corn mash was inoculated with a mixed bacterial population previously isolated from an infected commercial corn mash. The infected mash was incubated with the inoculant for up to 24 hours at approximately 32° C. […] Substrate is frozen in 20% glycerol solution and then thawed before use.
# 1% Infected liquefied mash: Per every 100 g of “clean” mash, 1 g of infected mash is added and mixed thoroughly.
# Low Dry Solids fermentation. 1% Infected Mash was diluted to 20% dry solids. 200 ppm target urea was added as an exogenous nitrogen source for yeast. Commercial glucoamylase GSA, was used at a dose of 0.6 AGU/g-dry solids. Yeast was pitched at a rate of 0.25 g/L. Experimental enzymes were dosed between 2 ppm and 100 ppm. Dosage were against dry solids.
# Positive control: Penicillin was used at 25 ppm.
# Negative control: No treatment was added.
# Yeast, enzymes, and any additional tap water was added at approximately the same time to start fermentation. […]
# Fermentations were sampled at various time points to examine soluble carbohydrates and organic acids. […] Analytes were quantified against internal standards. […]
# Data was analyzed using SAS JMP statistical software.
substance,measurement,setting,value
Aspergillus terreus: AA13 polypeptide from Aspergillus terreus having the amino acid sequence of SEQ ID NO: 119,average Ethanol,[1]; AA13 dose 10 ug/g-DS,77.1 g/L
same,average Lactic Acid,[1]; AA13 dose 10 ug/g-DS,3.4 g/L
same,% delta Ethanol,[1]; AA13 dose 10 ug/g-DS,−0.7%
same,% delta Lactic Acid,[1]; AA13 dose 10 ug/g-DS,1.3%
same,average Ethanol,[1]; AA13 dose 50 ug/g-DS,78.0 g/L
same,average Lactic Acid,[1]; AA13 dose 50 ug/g-DS,3.4 g/L
same,% delta Ethanol,[1]; AA13 dose 50 ug/g-DS,0.4%
same,% delta Lactic Acid,[1]; AA13 dose 50 ug/g-DS,1.3%
same,"lactic acid titers, dose response (FIG. 5)",[2],reduced lactic acid titers compared to the control

# — patent US11795481B2, “Processes for producing a fermentation product” (Novozymes A/S, priority 2017, dated 2023)
